Where a name gives a salt, the structure may show the parent alone. Read-outs that look alike come from different tables or passages of the source. Values belong to the compound of their own block, whether it stands above or below them.
Tests used:
[1] = tested on: IL-23p19; test: LPS induced IL23p19 in THP-1 cells (with IFNγ primed) assay; format: cell-based, Human; settings: THP-1 cells, IFNγ primed, LPS 1 ug/mL, 18 hours, 10 pt, read-out: IL23-p19 ELISA, THP1-IFNy, LPS, 10 pt EC50
Method in brief: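 THP-1 cells primed ~18 h with IFNγ (50 ng/mL), pre-incubated 1 h with compound at 37 °C, then stimulated 18 h with LPS (1 ug/mL final). Supernatant IL-23p19 measured by sandwich ELISA with chemiluminescent read-out; EC50 from curve fitting. Toxicity checked on the remaining cells by Cell Titer Glo.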

[2] = tested on: IL-23 (p19/p40); test: IL23-p19 ELISA, Dendritic, LPS (compound screening using DC cells); format: cell-based, Human; settings: PBMC-derived DC cells, IFNγ primed, LPS 1 μg/ml, 18 hours, 10 pt, read-out: IL23-p19 ELISA, Dendritic, LPS, 10 pt, EC50
Method in brief: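 Human PBMC-derived dendritic cells (7 d GM-CSF 100 ng/ml + IL-4 20 ng/ml), primed 24 h with IFNγ 50 ng/ml, pre-incubated 1 h with compound, then stimulated 18 h with LPS 1 μg/ml. Supernatant IL-23 measured by p19-capture/p40-detection chemiluminescent ELISA; CellTiter Glo checks cytotoxicity.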

Structure (SMILES): COCCOCCN(C(=O)c1ccc(-c2cnn(CCOCCOC)c2)o1)c1cn(CCOCCOC)nc1-c1ccccn1 [Compound I-50, N-(2-(2-methoxyethoxy)ethyl)-5-(1-(2-(2-methoxyethoxy)ethyl)-1H-pyrazol-4-yl)-N-(1-(2-(2-methoxyethoxy)ethyl)-3-(pyridin-2-yl)-1H-pyrazol-4-yl)furan-2-carboxamide formate]
EC50 ([1]; Homo sapiens, THP-1, 18 h): 14200 nM
EC50 ([2]; Homo sapiens, 18 h): 3510 nM

Structure (SMILES): CCOCCn1cc(NC(=O)c2ccc(-c3c[nH]nc3C)o2)c(-c2ccccn2)n1 [Compound I-56, N-(1-(2-ethoxyethyl)-3-(pyridin-2-yl)-1H-pyrazol-4-yl)-5-(3-methyl-1H-pyrazol-4-yl)furan-2-carboxamide formate]
EC50 ([1]; Homo sapiens, THP-1, 18 h): 156 nM
EC50 ([2]; Homo sapiens, 18 h): 7720 nM

Structure (SMILES): CCOCCn1cc(NC(=O)c2ccc(-c3c(C)n[nH]c3C)o2)c(-c2ccccn2)n1 [Compound I-58, 5-(3,5-dimethyl-1H-pyrazol-4-yl)-N-(1-(2-ethoxyethyl)-3-(pyridin-2-yl)-1H-pyrazol-4-yl)furan-2-carboxamide formate]
EC50 ([1]; Homo sapiens, THP-1, 18 h): 2810 nM
EC50 ([2]; Homo sapiens, 18 h): 27500 nM

Structure (SMILES): O=C(Nc1cn(C2CCOCC2)nc1-c1nccs1)c1ccc(-c2cn[nH]c2)o1 [Compound I-60, 5-(1H-pyrazol-4-yl)-N-(1-(tetrahydro-2H-pyran-4-yl)-3-(thiazol-2-yl)-1H-pyrazol-4-yl)furan-2-carboxamide formate]
EC50 ([1]; formate): 174 nM
EC50 ([2]; formate): 33.8 nM

Structure (SMILES): CCO[C@H]1C[C@@H](n2cc(NC(=O)c3ccc(-c4cn[nH]c4)o3)c(-c3nccs3)n2)C1 [Compound I-62, N-(1-((1s,3s)-3-ethoxycyclobutyl)-3-(thiazol-2-yl)-1H-pyrazol-4-yl)-5-(1H-pyrazol-4-yl)furan-2-carboxamide formate]
EC50 ([1]; Homo sapiens, THP-1, 18 h): 48.1 nM
EC50 ([2]; Homo sapiens, 18 h): 115 nM

Structure (SMILES): COCCOCCn1cc(NC(=O)c2ccc(-c3cn[nH]c3)o2)c(-c2nccs2)n1 [Compound I-64, N-(1-(2-(2-methoxyethoxy)ethyl)-3-(thiazol-2-yl)-1H-pyrazol-4-yl)-5-(1H-pyrazol-4-yl)furan-2-carboxamide]
EC50 ([1]; Homo sapiens, THP-1, 18 h): 77.7 nM
EC50 ([2]; Homo sapiens, 18 h): 366 nM

Structure (SMILES): O=C(Nc1cn(C2CCOCC2)nc1-c1nccs1)c1ccc(-c2cn[nH]c2)o1 [Compound I-65, 5-(1H-pyrazol-4-yl)-N-(1-(tetrahydro-2H-pyran-4-yl)-3-(thiazol-2-yl)-1H-pyrazol-4-yl)furan-2-carboxamide]
EC50 [1]: 54.3 nM
EC50 [2]: 199 nM

Now from value to compound:

EC50 ([1]; Homo sapiens, THP-1, 18 h): 617 nM
EC50 ([2]; Homo sapiens, 18 h): 1580 nM
Structure (SMILES): CCOCCn1cc(NC(=O)c2ccc(-c3cnn(COP(=O)(O)O)c3)o2)c(-c2ccccn2)n1 [Compound I-54, (4-(5-((1-(2-ethoxyethyl)-3-(pyridin-2-yl)-1H-pyrazol-4-yl)carbamoyl)furan-2-yl)-1H-pyrazol-1-yl)methyl dihydrogen phosphate]

EC50 ([1]; phosphate): 1200 nM
EC50 ([2]; phosphate): 801 nM
Structure (SMILES): CCOCCn1cc(NC(=O)c2ccc(-c3cnn(COP(=O)(O)O)c3)o2)c(-c2ccccn2)n1 [Compound I-55, sodium (4-(5-((1-(2-ethoxyethyl)-3-(pyridin-2-yl)-1H-pyrazol-4-yl)carbamoyl)furan-2-yl)-1H-pyrazol-1-yl)methyl phosphate]

EC50 ([1]; Homo sapiens, THP-1, 18 h): 72.3 nM
EC50 ([2]; formate salt): 4.1 nM
Structure (SMILES): Cn1cc(NC(=O)c2ccc(-c3cn[nH]c3)o2)c(-c2ccccn2)n1 [Compound I-67, N-{1-Methyl-3-(pyridine-2-yl)-1H-pyrazol-4-yl}-5-(1H-pyrazol-4-yl)furan-2-carboxamide, formate salt]

EC50 ([1]; Homo sapiens, THP-1, 18 h): 1250 nM
EC50 ([2]; Homo sapiens, 18 h): 325 nM
Structure (SMILES): Cn1cc(-c2ccc(C(=O)Nc3cn(C)nc3-c3ccccn3)o2)cn1 [Compound I-69, 5-(1-Methyl-1H-pyrazol-4-yl)-N-{1-methyl-3-(pyridine-2-yl)-1H-pyrazol-4-yl}furan-2-carboxamide, formate salt]

— patent publication US10208074B2, “Pyrazole compounds and method for making and using the compounds” (Rigel Pharmaceuticals, Inc., priority 2015, dated 2019)
